Measured values published in patent publication US20230393140A1, “BINDING ASSAYS INVOLVING A PLURALITY OF SYNTHETIC COMPOUNDS, TARGETS, AND COUNTER TARGETS” (SRI International, priority 2020, published 2023).
Read-outs that look alike come from different tables or passages of the source. Each block holds one molecule with its values, some of them ahead of it. Numbered stars: 1 amine (or outer) side, 2 acyl side, 3 side chain; on linkers, the order of the positions; unused ones are H or OH. Square brackets hold non-standard residues; d marks the D form. Peptide text beside a SMILES is read from it. * marks the point of attachment. 5FAM = O=C1OC2(c3ccc(O)cc3Oc3cc(O)ccc32)c2ccc(C(=O)*)cc21; NHCH2C6H4(4-CH2CONH2) = NC(=O)Cc1ccc(CN*)cc1; X1 = O=C(Cc1ccc(CN[*:1])cc1)[*:2]

How the values were obtained:
cRaf/K-Ras (G12V) PPI = molecular target: T1, cRaf/K-Ras (G12V) PPI (Homo sapiens, UniProt P01116, G12V); experiment: K-Ras-cRaf HTRF-based PPI profiling; type: biochemical; conditions: for blank corrected HTRF: raw data; for % Binding: relative to DMSO controls;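 on blank corrected HTRF: background is the signal of wells with all components except cRaf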
T1 construct: b-Kras G12V (GppNHp) (aa 2-169); biotin (b-
Method: In some experimental embodiments, a buffer was added to the assay wells which included […] HEPES pH 7.4, 150 mM NaCl, 5 mM MgCl2, 1 mM DTT, 0.005% NP40, and 1% DMSO. 5 uL of 3×K-Ras protein was then added to the assay wells, followed by the synthetic compounds which were added using acoustic technology (ECHO, Labcyte) followed by thirty minutes incubation at room temperature. Afterwards, 5 uL of 3×cRaf protein was added to the assay wells and 5 uL of detection mix was then added to the assay wells after 30 minutes. The detection mix included Mab anti-GST-Tb cryptate (Cisbio 61GSTTLB) and streptavidin-XL665 (Ex/Em=(337/665; 620) in PHERAstar (BMG Labtech)). HTRF signal was measured […] later.
The data includes raw data (signal-background without cRaf protein but with all other component), % binding (relative to DMSO controls), and curve fits. Curve fits were performed when the activities at the highest concentration of the synthetic compounds were less than 65%. Tables 18A-18B below includes the raw data (e.g., blank corrected HTRF) and Tables 19A-19B includes the % binding.

K-Ras = molecular target: T2, K-Ras (Homo sapiens, UniProt P01116, G12V); experiment: MST binding affinity of resynthesized NNP hits to K-Ras; conditions: read-out: KD (nM) [95% conf. int]; MST; NNP1 library hit; target K-Ras; one-site binding model
T2 construct: purchased Cytoskeleton Inc. CS-RS04
Method: Loading was performed according to the following protocol: The 200 μM stock solution of the target protein was diluted to 10 μM in 20 mM HEPES pH 8.0, 150 mM NaCl, 10 mM MgCl2, 1 mM TCEP, 0.05% Tween-20 (total volume 110 μL). 10 μL were set aside for later labeling quality control. EDTA pH 8.0 (stock concentration 10 mM) was added to the protein solution to a final concentration of 80 μM. GTP (stock concentration 50 mM) was added to the protein solution to a final concentration of 750 μM. The solution was incubated at 30° C. for 2 hours (PCR tube) and then placed on ice for 2 minutes. MgCl2 was added to the protein solution to a final concentration of 100 mM. The resulting protein solution was buffer exchanged into the buffer required in the labeling kit for labeling. […] All the other target molecules (TNFα, IL-6, IL-6R and ASGPR) were used as received without any additional treatment.
Hit binding affinity to various targets were determined using Microscale Thermophoresis (MST). MST experiments were performed on a Monolith NT.115pico (NanoTemper Technologies GmbH, Munich, Germany). Measurements were performed at room temperature, in triplicate with incubation periods of 15, 30 and 45 minutes. […] Targets were labeled using Nanotemper Monolith 2nd Generation Protein Labeling Kits. RED-MALEIMIDE (Maleimide-647-dye) labeling kit was used for K-Ras and RED-NHS (NHS-647-dye) labeling kit was used for IL-6, IL-6R, TNFα and ASGPR. The buffer for the ASGPR contained 20 mM HEPES pH 7.4, 150 mM NaCl, 10 mM MgCl2, 2 mM CaCl2, 0.05% Pluronic F-127, and 1 mM DTT; for IL-6 contained 20 mM HEPES pH 7.4, 150 mM KCl, 10 mM MgCl2, and 0.1% Pluronic F-127; for the soluble IL-6 receptor 20 mM HEPES pH 7.4, 150 mM NaCl, 10 mM MgCl2, and 0.05% Tween-20; for K-Ras 20 mM HEPES pH 7.4, 150 mM NaCl, 10 mM MgCl2, 0.05% Tween-20 and 1 mM DTT; for TNFα 10 mM HEPES pH 7.4, 150 mM NaCl, 10 mM MgCl2, 0.05% Polysorbate-20. Triplicate data was analyzed using MO.AffinityAnalysis software (NanoTemper Technologies GmbH).

IC50 (cRaf/K-Ras (G12V) PPI; 1% DMSO in reaction, compounds without fluorescein, 30 nM K-Ras G12V, 10 nM GST-cRaf, 30 min pre-incubation, read-out: K-Ras G12V Compound IC50): 1600 nM | IC50 (cRaf/K-Ras (G12V) PPI; 10-concentration IC50 mode, 3-fold serial dilution, K-Ras G12V 30 nM, GST-cRaf 10 nM, read-out: IC50): 1600 nM | HillSlope (cRaf/K-Ras (G12V) PPI; curve fit of % binding, K-Ras G12V 30 nM, GST-cRaf 10 nM): −0.5508 | blank corrected HTRF (cRaf/K-Ras (G12V) PPI; conc. 1.67E−05): 2409 | blank corrected HTRF (cRaf/K-Ras (G12V) PPI; conc. 1.85E−06): 6562 | blank corrected HTRF (cRaf/K-Ras (G12V) PPI; conc. 2.06E−07): 10050 | blank corrected HTRF (cRaf/K-Ras (G12V) PPI; conc. 2.29E−08): 12784 | blank corrected HTRF (cRaf/K-Ras (G12V) PPI; conc. 2.54E−09): 13013 | blank corrected HTRF (cRaf/K-Ras (G12V) PPI; conc. 5.00E−05): 2344 | blank corrected HTRF (cRaf/K-Ras (G12V) PPI; conc. 5.56E−06): 4849 | blank corrected HTRF (cRaf/K-Ras (G12V) PPI; conc. 6.17E−07): 8628 | blank corrected HTRF (cRaf/K-Ras (G12V) PPI; conc. 6.86E−08): 11886 | blank corrected HTRF (cRaf/K-Ras (G12V) PPI; conc. 7.62E−09): 13422 | % Binding (cRaf/K-Ras (G12V) PPI; conc. 1.67E−05): 17.36% | % Binding (cRaf/K-Ras (G12V) PPI; conc. 1.85E−06): 47.29% | % Binding (cRaf/K-Ras (G12V) PPI; conc. 2.06E−07): 72.42% | % Binding (cRaf/K-Ras (G12V) PPI; conc. 2.29E−08): 92.13% | % Binding (cRaf/K-Ras (G12V) PPI; conc. 2.54E−09): 93.78% | % Binding (cRaf/K-Ras (G12V) PPI; conc. 5.00E−05): 16.9% | % Binding (cRaf/K-Ras (G12V) PPI; conc. 5.56E−06): 34.94% | % Binding (cRaf/K-Ras (G12V) PPI; conc. 6.17E−07): 62.18% | % Binding (cRaf/K-Ras (G12V) PPI; conc. 6.86E−08): 85.66% | % Binding (cRaf/K-Ras (G12V) PPI; conc. 7.62E−09): 96.73%
Structure (SMILES): Cn1cnc(Cn2ccc3ccc(CNCc4[nH]c5ccccc5c4[C@H]4NC(=O)c5ccc(O)cc54)cc32)c1 [BI-2852, reference compound]

Structure (SMILES): CC(C)[C@H](NC(=O)[C@@H](Cc1ccc(O)cc1)NC(=O)[C@@H](Cc1c[nH]cn1)NC(=O)[C@H]1CCCN1C(=O)[C@@H](Cc1c[nH]c2ccccc12)NC(=O)c1ccc2c(c1)C(=O)OC21c2ccc(O)cc2Oc2cc(O)ccc21)C(=O)NCc1ccc(CC(=O)NCC(=O)N[C@@H](C(=O)N2CCC[C@@H]2C(=O)N[C@H](CCCNC(=N)N)C(=O)N[C@@H](C)C(=O)NCc2ccc(CC(=O)N3CCC[C@@H]3C(=O)N[C@H](CO)C(=O)N[C@H](CCC(=O)O)C(=O)N[C@H](CCCNC(=N)N)C(=O)NCC(=O)NCc3ccc(CC(=O)N4CCC[C@@H]4C(=O)N[C@H](CCCCN)C(=O)N[C@H](Cc4ccc(O)cc4)C(=O)N[C@H](CCCNC(=N)N)C(=O)N[C@@H](Cc4ccccc4)C(=O)NCc4ccc(CC(=O)N5CCC[C@@H]5C(=O)NCC(=O)N[C@H](CCCNC(=N)N)C(=O)N[C@H](Cc5c[nH]c6ccccc56)C(=O)NCC(=O)NCc5ccc(CC(=O)N[C@H](Cc6ccc(O)cc6)C(=O)N6CCC[C@@H]6C(=O)N[C@H](CCCNC(=N)N)C(=O)N[C@H](CCC(=O)O)C(=O)NCC(=O)NCc6ccc(CC(N)=O)cc6)cc5)cc4)cc3)cc2)C(C)C)cc1 [KRAS-1-2] (5FAM-[dW][dP][dH][dY]V[X1]G[dV][dP][dR]A[X1][dP][dS][dE][dR]G[X1][dP][dK][dY][dR]F[X1][dP]G[dR][dW]G[X1][dY][dP][dR][dE]G-{NHCH2C6H4(4-CH2CONH2)})
Kd (K-Ras): 49 nM

Structure (SMILES): CC(C)C[C@@H](NC(=O)c1ccc2c(c1)C(=O)OC21c2ccc(O)cc2Oc2cc(O)ccc21)C(=O)N1CCC[C@@H]1C(=O)N[C@H](CCC(=O)O)C(=O)N[C@H](CO)C(=O)N[C@@H](Cc1ccccc1)C(=O)NCc1ccc(CC(=O)NCC(=O)N[C@@H](C(=O)N2CCC[C@@H]2C(=O)N[C@H](CCCNC(=N)N)C(=O)N[C@@H](C)C(=O)NCc2ccc(CC(=O)N3CCC[C@@H]3C(=O)N[C@H](CO)C(=O)N[C@H](CCC(=O)O)C(=O)N[C@H](CCCNC(=N)N)C(=O)NCC(=O)NCc3ccc(CC(=O)N4CCC[C@@H]4C(=O)N[C@H](CCCCN)C(=O)N[C@H](Cc4ccc(O)cc4)C(=O)N[C@H](CCCNC(=N)N)C(=O)N[C@@H](Cc4ccccc4)C(=O)NCc4ccc(CC(=O)N[C@H](CCCNC(=N)N)C(=O)N[C@H](Cc5ccc(O)cc5)C(=O)N[C@@H](C(=O)N[C@H](CCC(=O)O)C(=O)N[C@@H](C)C(=O)NCc5ccc(CC(=O)NCC(=O)N[C@H](Cc6c[nH]c7ccccc67)C(=O)N[C@H](Cc6c[nH]cn6)C(=O)N[C@H](CCCNC(=N)N)C(=O)N[C@@H](C)C(=O)NCc6ccc(CC(N)=O)cc6)cc5)[C@H](C)O)cc4)cc3)cc2)C(C)C)cc1 [KRAS-1-3] (5FAM-[dL][dP][dE][dS]F[X1]G[dV][dP][dR]A[X1][dP][dS][dE][dR]G[X1][dP][dK][dY][dR]F[X1][dR][dY][dT][dE]A[X1]G[dW][dH][dR]A-{NHCH2C6H4(4-CH2CONH2)})
Kd (K-Ras): 18 nM

Structure (SMILES): CC(C)[C@H](NC(=O)[C@@H](Cc1ccc(O)cc1)NC(=O)[C@@H](Cc1c[nH]cn1)NC(=O)[C@H]1CCCN1C(=O)[C@@H](Cc1c[nH]c2ccccc12)NC(=O)c1ccc2c(c1)C(=O)OC21c2ccc(O)cc2Oc2cc(O)ccc21)C(=O)NCc1ccc(CC(=O)N2CCC[C@@H]2C(=O)N[C@H](CO)C(=O)NCC(=O)N[C@H](CO)C(=O)N[C@@H](C)C(=O)NCc2ccc(CC(=O)N3CCC[C@@H]3C(=O)N[C@H](CO)C(=O)N[C@H](CCC(=O)O)C(=O)N[C@H](CCCNC(=N)N)C(=O)NCC(=O)NCc3ccc(CC(=O)N4CCC[C@@H]4C(=O)N[C@H](CCCCN)C(=O)N[C@H](Cc4ccc(O)cc4)C(=O)N[C@H](CCCNC(=N)N)C(=O)N[C@@H](Cc4ccccc4)C(=O)NCc4ccc(CC(=O)N5CCC[C@@H]5C(=O)NCC(=O)N[C@H](CCCNC(=N)N)C(=O)N[C@H](Cc5c[nH]c6ccccc56)C(=O)NCC(=O)NCc5ccc(CC(=O)N[C@H](Cc6ccc(O)cc6)C(=O)N6CCC[C@@H]6C(=O)N[C@H](CCCNC(=N)N)C(=O)N[C@H](CCC(=O)O)C(=O)NCC(=O)NCc6ccc(CC(N)=O)cc6)cc5)cc4)cc3)cc2)cc1 [KRAS-1-5] (5FAM-[dW][dP][dH][dY]V[X1][dP][dS]G[dS]A[X1][dP][dS][dE][dR]G[X1][dP][dK][dY][dR]F[X1][dP]G[dR][dW]G[X1][dY][dP][dR][dE]G-{NHCH2C6H4(4-CH2CONH2)})
Kd (K-Ras): 75 nM

Structure (SMILES): CC(C)C[C@H](NC(=O)[C@@H](CCC(=O)O)NC(=O)[C@H](NC(=O)[C@H]1CCCN1C(=O)[C@@H](CCC(=O)O)NC(=O)c1ccc2c(c1)C(=O)OC21c2ccc(O)cc2Oc2cc(O)ccc21)[C@H](C)O)C(=O)NCc1ccc(CC(=O)NCC(=O)N[C@@H](C(=O)N2CCC[C@@H]2C(=O)N[C@H](CCCNC(=N)N)C(=O)N[C@@H](C)C(=O)NCc2ccc(CC(=O)N3CCC[C@@H]3C(=O)N[C@H](CO)C(=O)N[C@H](CCC(=O)O)C(=O)N[C@H](CCCNC(=N)N)C(=O)NCC(=O)NCc3ccc(CC(=O)N4CCC[C@@H]4C(=O)N[C@H](CCCCN)C(=O)N[C@H](Cc4ccc(O)cc4)C(=O)N[C@H](CCCNC(=N)N)C(=O)N[C@@H](Cc4ccccc4)C(=O)NCc4ccc(CC(=O)N[C@H](CCCNC(=N)N)C(=O)N[C@H](Cc5ccc(O)cc5)C(=O)N[C@@H](C(=O)N[C@H](CCC(=O)O)C(=O)N[C@@H](C)C(=O)NCc5ccc(CC(=O)NCC(=O)N[C@H](Cc6c[nH]c7ccccc67)C(=O)N[C@H](Cc6c[nH]cn6)C(=O)N[C@H](CCCNC(=N)N)C(=O)N[C@@H](C)C(=O)NCc6ccc(CC(N)=O)cc6)cc5)[C@H](C)O)cc4)cc3)cc2)C(C)C)cc1 [KRAS-1-10] (5FAM-[dE][dP][dT][dE]L[X1]G[dV][dP][dR]A[X1][dP][dS][dE][dR]G[X1][dP][dK][dY][dR]F[X1][dR][dY][dT][dE]A[X1]G[dW][dH][dR]A-{NHCH2C6H4(4-CH2CONH2)})
Kd (K-Ras): 60 nM
